Our source for the EC50 values is ChEMBL document CHEMBL3108681, “Inhibitors of Tropomyosin-Receptor Kinases (Trk's): Potential Pain Therapy and More” (ACS Med Chem Lett, 2014).

Sequence of High affinity nerve growth factor receptor (P04629 whole entry): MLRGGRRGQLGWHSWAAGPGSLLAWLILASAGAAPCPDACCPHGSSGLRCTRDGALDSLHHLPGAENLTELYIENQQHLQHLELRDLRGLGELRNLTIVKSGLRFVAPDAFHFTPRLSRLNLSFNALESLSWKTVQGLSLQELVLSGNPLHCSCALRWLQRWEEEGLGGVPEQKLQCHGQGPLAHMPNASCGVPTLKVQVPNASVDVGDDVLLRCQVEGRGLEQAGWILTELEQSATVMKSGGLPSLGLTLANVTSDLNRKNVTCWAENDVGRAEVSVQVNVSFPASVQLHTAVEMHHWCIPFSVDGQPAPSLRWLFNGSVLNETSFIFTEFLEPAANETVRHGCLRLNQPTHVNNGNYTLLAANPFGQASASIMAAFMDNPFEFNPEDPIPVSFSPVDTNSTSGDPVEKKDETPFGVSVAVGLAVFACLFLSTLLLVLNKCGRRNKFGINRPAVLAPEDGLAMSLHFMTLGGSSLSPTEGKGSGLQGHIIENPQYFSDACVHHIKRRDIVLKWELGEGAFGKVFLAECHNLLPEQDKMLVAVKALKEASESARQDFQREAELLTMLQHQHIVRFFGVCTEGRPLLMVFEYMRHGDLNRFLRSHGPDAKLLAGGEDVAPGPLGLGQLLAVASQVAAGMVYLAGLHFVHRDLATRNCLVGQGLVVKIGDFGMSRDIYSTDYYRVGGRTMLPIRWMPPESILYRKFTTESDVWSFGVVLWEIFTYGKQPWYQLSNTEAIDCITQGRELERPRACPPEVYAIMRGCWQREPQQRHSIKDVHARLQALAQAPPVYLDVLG

This assay concerns the target High affinity nerve growth factor receptor (Homo sapiens, UniProt P04629). Description: Inhibition of TrkA (unknown origin) using fluorescently labeled peptide substrate after 3 hrs.
Consider `CC1(C)CN(c2ccc(OC(F)(F)F)cc2)C(=O)N1Cc1cccc(-c2nccs2)c1`, for which the EC50 amounted to 1010 nM.
Under `CC(C)N(Cc1c[nH]c2ncccc12)C(=O)Nc1ccc(OC(F)(F)F)cc1` stands 11.3 nM.
Under `CC(C)N(Cc1c[nH]c2ncccc12)C(=O)Nc1ccc(SC(F)(F)F)cc1` stands 6.5 nM.

What is called EC50 is the concentration at which the effect is half-maximal.
